Data as given in publication PMC6367362, “MD001, a Novel Peroxisome Proliferator-activated Receptor α/γ Agonist, Improves Glucose and Lipid Metabolism” (Scientific Reports, 2019).

Assays:
PPARα = target: T1, PPARα (Homo sapiens, UniProt Q07869); assay: SPR analysis of binding to immobilised HA-PPARα; conditions: MD001 31.25-500 μM
T1 construct: HA; made in house
T1 sequence (Q07869 1-468): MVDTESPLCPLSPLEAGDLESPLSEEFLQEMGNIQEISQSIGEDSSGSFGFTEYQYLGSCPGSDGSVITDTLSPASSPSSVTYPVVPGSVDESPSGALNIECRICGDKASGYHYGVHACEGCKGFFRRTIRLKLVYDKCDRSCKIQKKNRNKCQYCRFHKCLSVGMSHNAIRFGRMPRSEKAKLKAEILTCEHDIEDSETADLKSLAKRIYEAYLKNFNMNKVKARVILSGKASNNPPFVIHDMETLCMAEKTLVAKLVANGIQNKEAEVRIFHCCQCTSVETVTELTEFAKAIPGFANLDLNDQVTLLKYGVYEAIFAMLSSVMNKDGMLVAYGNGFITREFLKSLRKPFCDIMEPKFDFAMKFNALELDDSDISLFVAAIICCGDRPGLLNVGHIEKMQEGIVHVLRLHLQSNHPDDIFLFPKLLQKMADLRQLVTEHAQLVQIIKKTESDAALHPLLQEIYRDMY
Procedure: SPR analysis was performed using a Reichert SR7500DC (Reichert Technologies, Depew, NY, USA). HA-PPARα, HA-PPARβ/δ, and HA-PPARγ were purified as previously described[23] and was immobilised on CMDH chips (Reichert Technologies) according to the manufacturer’s instructions. MD001 was loaded in a dose-dependent manner (31.25, 62.5, 125, 250, and 500 μM) for the SPR assay. The dissociation constant (KD) value was determined using the Scrubber2 program (Informer Technologies, Inc., Los Angeles, CA, USA).

HepG2 cells = assay: qRT-PCR gene expression in HepG2 cells; type: cell-based, human; conditions: 24 h
Procedure: Figure 2 MD001 induces the expression of target genes through PPARα and PPARγ activation. HEK293 cells were transiently co-transfected with human HA-PPARα (A) and HA-PPARγ (B) expression vectors along with the reporter plasmid (PPRE-pk-Luc) or control reporter plasmid (pk-Luc) with Renilla vector for 24 h. Cells were treated with MD001 (10 μM), rosiglitazone (rosi) (10 μM) or WY14643 (WY) (10 μM) for 24 h. Luciferase activity was normalised to Renilla luciferase activity as described in the Methods section. **, vs. vehicle. (C) HepG2 cells were treated with MD001 (10 μM) for 24 h, and total RNA was isolated and synthesised into cDNA. Relative expression was quantitated using qRT-PCR. **, vs. vehicle. (D,E) HepG2 cells were transfected with control siRNA, PPARα siRNA (D), or PPARγ siRNA (E) for 48 h and treated with vehicle, WY14643 (10 μM), rosiglitazone (10 μM) or MD001 (10 μM) for 24 h. Subsequently, cells were harvested for total RNA isolation. Relative expression of target genes was quantitated using qRT-PCR. ^#, vs. control siRNA; ^‡, vs. control siRNA/vehicle; ^§, vs. control siRNA/WY; * and **, vs. control siRNA/MD001. Data represent the mean ± SD of three independent experiments. *P < 0.05, **P < 0.01, ^#P < 0.01, ^‡P < 0.01, and ^§P < 0.01.
(§1) Figure 3 MD001 promotes glucose consumption by induction of GLUT expression. HepG2 (A), differentiated 3T3-L1 adipocytes (B), and differentiated C2C12 myotubes (C) were treated with vehicle, MD001 (10, 50 μM), or rosiglitazone (rosi, 10 μM) for 24 h; glucose consumption was examined as described in the Methods section. Cells were harvested for total RNA isolation. Relative expression levels of GLUT2 (D) and GLUT4 (E,F) were quantitated using qRT-PCR. *, **, and ^† vs. vehicle. Data represent the mean ± SD of three independent experiments. *P < 0.05, **P < 0.01, and ^†P < 0.01.
Figure 4 MD001 stimulates fatty acid oxidation in vitro. HepG2 (A), differentiated 3T3-L1 adipocyte (B), and differentiated C2C12 myotubes (C) were treated with vehicle or MD001 (10 μM) for 24 h and total RNA was isolated for cDNA synthesis. Relative gene expressions were analysed by qRT-PCR. HepG2 (D), differentiated 3T3-L1 adipocytes (E), and differentiated C2C12 myotubes (F) were treated with vehicle, MD001 (10 μM), or WY14643 (WY) (10 μM) for 24 h and the fatty acid oxidation rate was analysed as described in the Methods section. To confirm whether the fatty acid oxidation rate enhanced by MD001 is mediated by PPARα, HepG2 (G), differentiated 3T3-L1 (H), and differentiated C2C12 myotubes (I) were transfected with control or PPARα siRNA (20 nM) for 48 h, followed by treatment with vehicle, MD001 (10 μM), or WY14643 (WY) (10 μM) for 24 h. WY14643 was treated as positive control. *, **, vs. vehicle; ^† and ^‡, vs. vehicle/control siRNA; ^§, vs. WY/control siRNA; ^¶, vs. MD001/control siRNA. Data represent the mean ± SD of three independent experiments. *P < 0.05, **P < 0.01, ^†P < 0.01, ^‡P < 0.05, ^§P < 0.01, and ^¶P < 0.05.
Total RNA was isolated using an RNeasy kit (Qiagen, Germantown, MD, USA) according to the manufacturer’s instructions. Complementary DNA (cDNA) was synthesised by reverse transcription using 0.5 μg of total RNA, and quantitative RT-PCR was performed using Power SYBR Green PCR Master Mix (ABI Thermo Fisher Scientific, Foster City, CA, USA) on a StepOne 48-well real-time PCR system (ABI/Thermo Fisher Scientific). GAPDH was used as an endogenous control. Primer sequences are summarized in Supplementary Table S1.

[1] = test system: differentiated 3T3-L1 adipocytes; assay: qRT-PCR gene expression in differentiated 3T3-L1 adipocytes; type: cell-based, mouse; conditions: 24 h
Procedure: as §1
(§2) Figure 4 MD001 stimulates fatty acid oxidation in vitro. […] Relative gene expressions were analysed by qRT-PCR. HepG2 (D), differentiated 3T3-L1 adipocytes (E), and differentiated C2C12 myotubes (F) were treated with vehicle, MD001 (10 μM), or WY14643 (WY) (10 μM) for 24 h and the fatty acid oxidation rate was analysed as described in the Methods section. […]
(§3) Total RNA was isolated using an RNeasy kit (Qiagen, Germantown, MD, USA) according to the manufacturer’s instructions. Complementary DNA (cDNA) was synthesised by reverse transcription using 0.5 μg of total RNA, and quantitative RT-PCR was performed using Power SYBR Green PCR Master Mix (ABI Thermo Fisher Scientific, Foster City, CA, USA) on a StepOne 48-well real-time PCR system (ABI/Thermo Fisher Scientific). […]

[2] = test system: differentiated C2C12 myotubes; assay: qRT-PCR gene expression in differentiated C2C12 myotubes; type: cell-based, mouse; conditions: 24 h
Procedure: as §1, §2, §3

[3] = test system: differentiated C2C12 myotubes; assay: In vitro glucose consumption assay, C2C12 myotubes; type: cell-based, mouse; conditions: 10, 50 μM, 24 h
Procedure: as §1
The glucose consumption assay was performed as previously described. Briefly, cells were treated with MD001 or rosiglitazone […]. The conditioned medium from cultured cells was harvested and assayed for glucose content using a Glucose Colorimetric Assay Kit II (BioVision Inc., Milpitas, CA, USA).

Cc1c(O)cc(O)c2c(-c3ccccc3)c(C(=O)/C=C/c3ccccc3)c(=O)oc12 [MD001]
Kd (PPARα): 9.55 ± 0.8 µM
expression of PPARα target genes ACOX, CPT, mCAD (HepG2 cells; HepG2, control siRNA, 10 μM): significantly increased
expression of PPARγ target genes GK, CD36, FABP1 (HepG2 cells; HepG2, control siRNA, 10 μM): significantly increased
expression levels of ACOX, CPT, MLYCD, and FATP (HepG2 cells; HepG2, 10 μM): significantly increased
expression of PPARα, PPARγ, and RXR genes (HepG2 cells; HepG2, 10 μM): significantly increased
expression of glucose transporter GLUT2 (HepG2 cells; HepG2, 10, 50 μM): significantly increased
expression levels of ACOX and CPT ([1]; 10 μM): significantly increased
expression of glucose transporter GLUT4 ([1]; 10, 50 μM): significantly increased
expression levels of ACOX and CPT ([2]; 10 μM): significantly increased
expression of glucose transporter GLUT4 ([2]; 10, 50 μM): significantly increased
glucose consumption [3]: significantly increased glucose consumption in a dose-dependent manner
